Bridge positions count the residues as written; N and C are the ends. Peptide text beside a SMILES is read from it.
molecular target: T1, human Kv1.3 voltage-gated K+ channel (Homo sapiens, UniProt P22001); assay: cell-based; conditions: inhibition of thallium flux, CHO-DUKX cells with human Kv1.3; read-out: IC50
T1 construct: host or cells: CHO-DUKX
T1 sequence (P22001 whole entry): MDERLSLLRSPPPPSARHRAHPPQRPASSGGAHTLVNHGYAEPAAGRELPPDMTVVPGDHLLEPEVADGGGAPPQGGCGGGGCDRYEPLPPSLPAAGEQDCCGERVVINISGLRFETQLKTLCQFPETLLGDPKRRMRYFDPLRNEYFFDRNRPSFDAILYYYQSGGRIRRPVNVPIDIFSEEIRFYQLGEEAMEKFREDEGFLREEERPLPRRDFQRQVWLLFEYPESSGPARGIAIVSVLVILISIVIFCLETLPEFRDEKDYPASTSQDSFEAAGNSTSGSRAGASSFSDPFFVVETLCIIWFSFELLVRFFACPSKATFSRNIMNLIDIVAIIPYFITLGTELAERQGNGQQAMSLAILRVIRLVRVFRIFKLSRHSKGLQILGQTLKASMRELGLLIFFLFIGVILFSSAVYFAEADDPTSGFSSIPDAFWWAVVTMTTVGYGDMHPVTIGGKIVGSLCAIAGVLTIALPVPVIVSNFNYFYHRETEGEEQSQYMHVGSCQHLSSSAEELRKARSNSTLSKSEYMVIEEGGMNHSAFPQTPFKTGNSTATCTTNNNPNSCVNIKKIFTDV

Question: How did the IC50 turn out when `CC[C@H](C)[C@@H]1NC(=O)[C@H](C)NC(=O)[C@H](CCCCN)NC(=O)[C@H](CC(C)C)NC(=O)[C@@H]2CSSC[C@@H](C(=O)N[C@@H](Cc3ccc(O)cc3)C(=O)N3CCC[C@H]3C(=O)N[C@@H](CCCNC(=N)N)C(=O)O)NC(=O)[C@H](CCCCN)NC(=O)[C@@H]3CSSC[C@H](NC(=O)[C@H](CCC(=O)O)NC(=O)[C@H](C(C)C)NC(=O)[C@H](CO)NC(=O)[C@H](C)NC(=O)[C@H](CO)NC(=O)[C@@H](NC(=O)[C@H](CCCNC(=N)N)NC(=O)[C@H](CCSC)NC(=O)[C@H](CC(=O)O)NC(=O)[C@H](CCSC)NC(=O)[C@@H](N)CC(N)=O)CSSC[C@H](NC(=O)[C@H](CCCCN)NC(=O)CNC(=O)[C@H](Cc4ccccc4)NC(=O)CNC(=O)[C@H](CCCNC(=N)N)NC(=O)CNC1=O)C(=O)N[C@@H](CCSC)C(=O)N[C@@H](CC(N)=O)C(=O)N[C@@H](CCCCN)C(=O)N[C@@H](CCCCN)C(=O)N3)C(=O)N[C@@H](CCCCN)C(=O)N[C@@H](CCC(N)=O)C(=O)N[C@@H](CCCCN)C(=O)N2` [Compound 4] (H-NMDMRCSASVECKQKCLKAIGRGFGKCMNKKCKCYPR-OH; disulfide 6-27, 12-32, 16-34) was run?
Answer: 0.29 nM

Question: With `CC[C@H](C)[C@@H]1NC(=O)[C@H](C)NC(=O)[C@H](CCCCN)NC(=O)[C@H](CC(C)C)NC(=O)[C@@H]2CSSC[C@@H](C(=O)N[C@@H](Cc3ccc(O)cc3)C(=O)N3CCC[C@H]3C(=O)N[C@@H](CCCNC(=N)N)C(=O)O)NC(=O)[C@H](CCCCN)NC(=O)[C@@H]3CSSC[C@H](NC(=O)[C@H](CCC(=O)O)NC(=O)[C@H](C(C)C)NC(=O)[C@H](CO)NC(=O)[C@H](C)NC(=O)[C@H](CO)NC(=O)[C@@H](NC(=O)[C@H](CCCNC(=N)N)NC(=O)[C@H](CCSC)NC(=O)[C@@H](N)CC(=O)O)CSSC[C@H](NC(=O)[C@H](CCCCN)NC(=O)CNC(=O)[C@H](Cc4ccccc4)NC(=O)[C@H]([C@@H](C)CC)NC(=O)[C@H](CO)NC(=O)CNC1=O)C(=O)N[C@@H](CCSC)C(=O)N[C@@H](CC(N)=O)C(=O)N[C@@H](CCCCN)C(=O)N[C@@H](CCCCN)C(=O)N3)C(=O)N[C@@H](CCCCN)C(=O)N[C@@H](CCC(N)=O)C(=O)N[C@@H](CCCCN)C(=O)N2` [Compound 6] (H-DMRCSASVECKQKCLKAIGSIFGKCMNKKCKCYPR-OH; disulfide 4-25, 10-30, 14-32) as the compound, how does the IC50 read?
Answer: 0.34 nM

Question: Which IC50 does the source give for `CC[C@H](C)[C@@H]1NC(=O)[C@H](C)NC(=O)[C@H](CCCCN)NC(=O)[C@H](CC(C)C)NC(=O)[C@@H]2CSSC[C@@H](C(=O)N[C@@H](Cc3ccc(O)cc3)C(=O)N3CCC[C@H]3C(=O)N[C@@H](CCCNC(=N)N)C(N)=O)NC(=O)[C@H](CCCCN)NC(=O)[C@@H]3CSSC[C@H](NC(=O)[C@H](CCC(=O)O)NC(=O)[C@H](C(C)C)NC(=O)[C@H](CO)NC(=O)[C@H](C)NC(=O)[C@H](CO)NC(=O)[C@@H](NC(=O)[C@H](CCCNC(=N)N)NC(=O)[C@H](CCSC)NC(=O)[C@H](CC(=O)O)NC(=O)[C@H](CCSC)NC(=O)[C@@H](N)CC(N)=O)CSSC[C@H](NC(=O)[C@H](CCCCN)NC(=O)CNC(=O)[C@H](Cc4ccccc4)NC(=O)[C@H]([C@@H](C)CC)NC(=O)[C@H](CO)NC(=O)CNC1=O)C(=O)N[C@@H](CCSC)C(=O)N[C@@H](CC(N)=O)C(=O)N[C@@H](CCCCN)C(=O)N[C@@H](CCCCN)C(=O)N3)C(=O)N[C@@H](CCCCN)C(=O)N[C@@H](CCC(N)=O)C(=O)N[C@@H](CCCCN)C(=O)N2` [Compound 7] (H-NMDMRCSASVECKQKCLKAIGSIFGKCMNKKCKCYPR-NH2; disulfide 6-27, 12-32, 16-34) here?
Answer: 0.12 nM

Question: For `CC[C@H](C)[C@@H]1NC(=O)[C@H](C)NC(=O)[C@H](CCCCN)NC(=O)[C@H](CC(C)C)NC(=O)[C@@H]2CSSC[C@@H](C(=O)N[C@@H](Cc3ccc(O)cc3)C(=O)N3CCC[C@H]3C(=O)N[C@@H](CCCNC(=N)N)C(=O)O)NC(=O)[C@H](CCCCN)NC(=O)[C@@H]3CSSC[C@H](NC(=O)[C@H](CCC(=O)O)NC(=O)[C@H](C(C)C)NC(=O)[C@H](CO)NC(=O)[C@H](C)NC(=O)[C@H](CO)NC(=O)[C@@H](NC(=O)[C@H](CCCNC(=N)N)NC(=O)[C@@H](NC(=O)[C@H](CC(=O)O)NC(=O)[C@H](CCSC)NC(=O)[C@@H](N)CC(N)=O)C(C)C)CSSC[C@H](NC(=O)[C@H](CCCCN)NC(=O)CNC(=O)[C@H](Cc4ccccc4)NC(=O)[C@H]([C@@H](C)CC)NC(=O)[C@H](CO)NC(=O)CNC1=O)C(=O)N[C@@H](CCSC)C(=O)N[C@@H](CC(N)=O)C(=O)N[C@@H](CCCCN)C(=O)N[C@@H](CCCCN)C(=O)N3)C(=O)N[C@@H](CCCCN)C(=O)N[C@@H](CCC(N)=O)C(=O)N[C@@H](CCCCN)C(=O)N2` [Compound 9] (H-NMDVRCSASVECKQKCLKAIGSIFGKCMNKKCKCYPR-OH; disulfide 6-27, 12-32, 16-34), which IC50 is on record?
Answer: 0.53 nM

Question: How did the IC50 turn out when `CC[C@H](C)[C@@H]1NC(=O)[C@H](C)NC(=O)[C@H](CC(=O)O)NC(=O)[C@H](CCCCN)NC(=O)[C@@H]2CSSC[C@@H](C(=O)N[C@@H](Cc3ccc(O)cc3)C(=O)N3CCC[C@H]3C(=O)N[C@@H](CCCNC(=N)N)C(=O)O)NC(=O)[C@H](CCCCN)NC(=O)[C@@H]3CSSC[C@H](NC(=O)[C@H](CCC(=O)O)NC(=O)[C@H](C(C)C)NC(=O)[C@H](CO)NC(=O)[C@H](C)NC(=O)[C@H](CO)NC(=O)[C@@H](NC(=O)[C@H](CCCNC(=N)N)NC(=O)[C@H](CCSC)NC(=O)[C@H](CC(=O)O)NC(=O)[C@H](CCSC)NC(=O)[C@@H](N)CC(N)=O)CSSC[C@H](NC(=O)[C@H](CCCCN)NC(=O)CNC(=O)[C@H](Cc4ccccc4)NC(=O)[C@H]([C@@H](C)CC)NC(=O)[C@H](CO)NC(=O)CNC1=O)C(=O)N[C@@H](CCSC)C(=O)N[C@@H](CC(N)=O)C(=O)N[C@@H](CCCCN)C(=O)N[C@@H](CCCCN)C(=O)N3)C(=O)N[C@@H](CCCCN)C(=O)N[C@@H](CCC(N)=O)C(=O)N[C@@H](CCCCN)C(=O)N2` [Compound 10] (H-NMDMRCSASVECKQKCKDAIGSIFGKCMNKKCKCYPR-OH; disulfide 6-27, 12-32, 16-34) was run?
Answer: 0.57 nM

Question: For `CC[C@H](C)[C@@H]1NC(=O)[C@H](C)NC(=O)[C@H](CCCCN)NC(=O)[C@H](CC(C)C)NC(=O)[C@@H]2CSSC[C@@H](C(=O)N[C@@H](Cc3ccc(O)cc3)C(=O)N3CCC[C@H]3C(=O)N[C@@H](CCCNC(=N)N)C(=O)O)NC(=O)[C@H](CCCCN)NC(=O)[C@@H]3CSSC[C@H](NC(=O)[C@H](CCC(=O)O)NC(=O)[C@H](C(C)C)NC(=O)[C@H](CO)NC(=O)[C@H](C)NC(=O)[C@H](CO)NC(=O)[C@@H](NC(=O)[C@H](CCCNC(=N)N)NC(=O)[C@H](CCSC)NC(=O)[C@H](CC(=O)O)NC(=O)[C@H](CCSC)NC(=O)[C@H](CC(N)=O)NC(=O)CNC(=O)CN)CSSC[C@H](NC(=O)[C@H](CCCCN)NC(=O)CNC(=O)[C@H](Cc4ccccc4)NC(=O)[C@H]([C@@H](C)CC)NC(=O)[C@H](CO)NC(=O)CNC1=O)C(=O)N[C@@H](CCSC)C(=O)N[C@@H](CC(N)=O)C(=O)N[C@@H](CCCCN)C(=O)N[C@@H](CCCCN)C(=O)N3)C(=O)N[C@@H](CCCCN)C(=O)N[C@@H](CCC(N)=O)C(=O)N[C@@H](CCCCN)C(=O)N2` [Compound 11] (H-GGNMDMRCSASVECKQKCLKAIGSIFGKCMNKKCKCYPR-OH; disulfide 8-29, 14-34, 18-36), which IC50 is on record?
Answer: 0.3 nM
